Test results published in patent EP0668759B1, “TRANSDERMAL DELIVERY OF KETOROLAC” (Neurogesx, Inc., priority 1992, dated 1994).

Assays:
[1] = water and methanol; cited from earlier work
[2] = approximate; cited from earlier work
[3] = in the presence of light; cited from earlier work
[4] = type: in vitro ADME, Human
Description: Skin permeation rates of various ketorolac/enhancer formulations were determined using flow through diffusion cells with an active area of 1 cm^2 and a receiving column of 3 ml. The receptor fluid, isotonic saline, was pumped into and through the cells by a peristaltic pump. Samples were collected in glass vials arranged in an automatic fraction collector. Human skin was placed on the lower half of the diffusion cell with the stratum corneum facing the donor compartment. The test solution or transdermal device was placed on the stratum corneum and the amount of drug permeated across the skin (µg/cm^2·hr) was calculated from the cumulative release.

SMILES: O=C(c1ccccc1)c1ccc2n1CCC2C(=O)O (stereo not shown) [Ketorolac tromethamine]
- solubility [1]: freely soluble in water and methanol

SMILES: O=C(c1ccccc1)c1ccc2n1CCC2C(=O)O (racemic) [ketorolac]
- half-life [2]: ~4 h
- stability to light [3]: degrades in the presence of light

SMILES: O=C(c1ccccc1)c1ccc2n1CC[C@@H]2C(=O)O [(-) ketorolac]
- permeability to human skin [4]: as permeable to human skin as the racemate
